Article PMC6792352, “Limited Chemical Structural Diversity Found to Modulate Thyroid Hormone Receptor in the Tox21 Chemical Library” (Environmental Health Perspectives, 2019)
Structures can show the parent of a compound that is named as a salt.

Assay: in vitro
Conditions: rat, gh3-tre-luc cells

| Compound | CC50 at 24 h (AC50 (uM) modified / 1000) [µM] | other results |
| --- | --- | --- |
| NC(=O)c1ccccc1N [2-Aminobenzamide] | > 90 | – |
| Nc1cc(S(=O)(=O)O)ccc1S(=O)(=O)O [2-Aminobenzene-1,4-disulfonic acid] | > 90 | – |
| Nc1nc2ccccc2[nH]1 [2-Aminobenzimidazole] | > 90 | – |
| Nc1ccccc1Nc1ccccc1 [2-Aminodiphenylamine] | 14.7 | – |
| NCCOS(=O)(=O)O [2-Aminoethyl hydrogen sulfate] | – | CC50 at 24 h (AC50 (uM) modified / 1000, Tox21_110001=Tox21_302045, viability, 1 nM T3 present, 24 h): > 90 µM |
| Nc1ccc2c(c1)Cc1ccccc1-2 [2-Aminofluorene] | – | CC50 at 24 h (AC50 (uM) modified / 1000, Tox21_110001=Tox21_202971, viability, 1 nM T3 present, 24 h): > 90 µM |
| CCCCCC(C)N (stereo not drawn) [2-Aminoheptane sulfate] | > 50 | – |
| Nc1ccccc1O [2-Aminophenol] | 40.6 | – |
| Nc1ccccn1 [2-Aminopyridine] | > 90 | – |
| Nc1nccs1 [2-Aminothiazole] | > 90 | – |
| NC(=O)Nc1nc2ccccc2[nH]1 [2-Benzimidazolylurea] | > 90 | – |
| O=Cc1cc2ccccc2o1 [2-Benzofurancarboxaldehyde] | > 90 | – |
| O=c1[nH]c2ccccc2o1 [2-Benzoxazolinone] | > 90 | – |
| CCC(Cc1ccccc1)(C(=O)c1ccc(N2CCOCC2)cc1)N(C)C (stereo not drawn) [2-Benzyl-2-(dimethylamino)-1-[4-(morpholin-4-yl)phenyl]butan-1-one] | 68.2 | – |
| Nc1ccccc1-c1ccccc1 [2-Biphenylamine] | > 90 | – |
| OCCBr [2-Bromo-1-ethanol] | – | CC50 at 24 h (AC50 (uM) modified / 1000, Tox21_110001=Tox21_201036, viability, 1 nM T3 present, 24 h): > 90 µM |
| O=C(CBr)c1ccc(O)cc1 [2-Bromo-4-hydroxyacetophenone] | > 90 | – |
| O=Cc1cc(O)ccc1Br [2-Bromo-5-hydroxy-benzaldehyde] | > 90 | – |
| O=C(CBr)c1ccccc1 [2-Bromoacetophenone] | – | CC50 at 24 h (AC50 (uM) modified / 1000, Tox21_110001=Tox21_202941, viability, 1 nM T3 present, 24 h): > 90 µM |
| Brc1nc2ccccc2s1 [2-Bromobenzothiazole] | > 90 | – |
| Brc1ccccc1-c1ccccc1 [2-Bromobiphenyl] | > 90 | – |
| CCC(C)Br (stereo not drawn) [2-Bromobutane] | – | CC50 at 24 h (AC50 (uM) modified / 1000, Tox21_110001=Tox21_200633, viability, 1 nM T3 present, 24 h): > 100 µM |
| CCCCCCCCCCCCCCC(Br)C(=O)O (stereo not drawn) [2-Bromohexadecanoic acid] | > 90 | – |
| CC(C)Br [2-Bromopropane] | – | CC50 at 24 h (AC50 (uM) modified / 1000, Tox21_110001=Tox21_200356, viability, 1 nM T3 present, 24 h): > 90 µM |
| CC(Br)C(=O)O (stereo not drawn) [2-Bromopropionic acid] | – | CC50 at 24 h (AC50 (uM) modified / 1000, Tox21_110001=Tox21_201417, viability, 1 nM T3 present, 24 h): > 90 µM |
| Cc1ccccc1Br [2-Bromotoluene] | > 90 | – |
| CCC(C)N (stereo not drawn) [2-Butanamine] | > 90 | – |

| Compound | CC50 at 24 h (AC50 (uM) modified / 1000) [µM] | other results |
| --- | --- | --- |
| CCC(C)S (stereo not drawn) [2-Butanethiol] | > 4 | – |
| CCC(C)O (stereo not drawn) [2-Butanol] | > 90 | – |
| CCC(C)=NO [2-Butanone oxime] | > 90 | – |
| OCC=CCO [2-Butene-1,4-diol] | > 90 | – |
| COC(=O)/C=C\C(=O)O [2-Butenedioic acid (2Z)-, monomethyl ester] | > 90 | – |
| C/C=C/C(=O)O [2-Butenoic acid] | > 90 | – |
| CCCCOCCO [2-Butoxyethanol] | > 90 | – |
| CCCCOCCOC(C)=O [2-Butoxyethyl acetate] | > 90 | – |
| CCCCN1C(=O)c2ccccc2C1=O [2-Butyl-1H-isoindole-1,3(2H)-dione] | > 90 | – |
| CCCCC(CC)(CO)CO [2-Butyl-2-ethyl-1,3-propanediol] | > 90 | – |
| CCCCCCC(CO)CCCC (stereo not drawn) [2-Butyloctan-1-ol] | > 90 | – |
| OCC#CCO [2-Butyne-1,4-diol] | > 90 | – |
| C=CC(=O)OCCC(=O)O [2-Carboxyethyl acrylate] | > 100 | – |
| O=[N+]([O-])c1cc(C(F)(F)F)cc([N+](=O)[O-])c1Cl [2-Chloro-1,3-dinitro-5-(trifluoromethyl)benzene] | > 90 | – |
| Nc1ccc(N)c(Cl)c1 [2-Chloro-1,4-diaminobenzene sulfate] | > 90 | – |
| CCOc1ccc(OCC)c(Cl)c1 [2-Chloro-1,4-diethoxybenzene] | > 90 | – |
| COc1ccc(OC)c(Cl)c1 [2-Chloro-1,4-dimethoxybenzene] | > 90 | – |
| O=[N+]([O-])c1ccc(F)c(Cl)c1 [2-Chloro-1-fluoro-4-nitrobenzene] | > 90 | – |
| Cc1ccc([N+](=O)[O-])cc1Cl [2-Chloro-1-methyl-4-nitrobenzene] | > 90 | – |
| CC(C)(Cl)[N+](=O)[O-] [2-Chloro-2-nitropropane] | – | CC50 at 24 h (AC50 (uM) modified / 1000, Tox21_110001=Tox21_200336, viability, 1 nM T3 present, 24 h): > 90 µM |
| Cc1cc(O)c(Cl)cc1C [2-Chloro-4,5-dimethylphenol] | > 90 | – |
| Nc1nc(N)nc(Cl)n1 [2-Chloro-4,6-diamino-1,3,5-triazine] | – | CC50 at 24 h (AC50 (uM) modified / 1000, Tox21_110001=Tox21_301105, viability, 1 nM T3 present, 24 h): > 90 µM |
| Cc1cc(C)c(N)c(Cl)c1 [2-Chloro-4,6-dimethylaniline] | > 90 | – |
| NC(=O)c1ccc([N+](=O)[O-])cc1Cl [2-Chloro-4-nitrobenzamide] | > 90 | – |
| Oc1ccc(-c2ccccc2)cc1Cl [2-Chloro-4-phenylphenol] | 81 | – |
| Cc1ccc(Cl)c(O)c1 [2-Chloro-5-methylphenol] | > 50 | – |
| O=C(Nc1ccccc1)c1cc([N+](=O)[O-])ccc1Cl [2-Chloro-5-nitro-N-phenylbenzamide] | 49.9 | – |

| Compound | CC50 at 24 h (AC50 (uM) modified / 1000) [µM] | other results |
| --- | --- | --- |
| Clc1ccc(C(Cl)(Cl)Cl)cn1 [2-Chloro-5-trichloromethylpyridine] | > 90 | – |
| CC(=O)C(Cl)C(=O)N(C)C (stereo not drawn) [2-Chloro-N,N-dimethyl-3-oxobutanamide] | > 90 | – |
| Cc1cc(Br)ccc1NC(=O)CCl [2-Chloro-N-(2-methyl-4-bromophenyl)acetamide] | 22.1 | – |
| O=C(CCl)NCO [2-Chloro-N-(hydroxymethyl)acetamide] | – | CC50 at 24 h (AC50 (uM) modified / 1000, Tox21_110001=Tox21_300964, viability, 1 nM T3 present, 24 h): > 90 µM |
| O=C(CCl)Nc1ccccc1 [2-Chloro-N-phenylacetamide] | 23.7 | – |
| O=C(CCl)c1ccccc1 [2-Chloroacetophenone] | – | CC50 at 24 h (AC50 (uM) modified / 1000, Tox21_110001=Tox21_202075, viability, 1 nM T3 present, 24 h): > 90 µM; CC50 at 24 h (AC50 (uM) modified / 1000, Tox21_110001=Tox21_300045, viability, 1 nM T3 present, 24 h): 62.3 µM |
| Nc1ccccc1Cl [2-Chloroaniline] | – | CC50 at 24 h (AC50 (uM) modified / 1000, Tox21_110001=Tox21_200802, viability, 1 nM T3 present, 24 h): > 90 µM |
| Clc1ccc2cc3ccccc3cc2c1 [2-Chloroanthracene] | > 90 | – |
| O=C1c2ccccc2C(=O)c2cc(Cl)ccc21 [2-Chloroanthraquinone] | > 5 | – |
| O=Cc1ccccc1Cl [2-Chlorobenzaldehyde] | > 90 | – |
| NS(=O)(=O)c1ccccc1Cl [2-Chlorobenzenesulfonamide] | > 90 | – |
| O=C(O)c1ccccc1Cl [2-Chlorobenzoic acid] | > 90 | – |
| FC(F)(F)c1ccccc1Cl [2-Chlorobenzotrifluoride] | > 90 | – |
| ClCc1ccccc1Cl [2-Chlorobenzyl chloride] | – | CC50 at 24 h (AC50 (uM) modified / 1000, Tox21_110001=Tox21_201089, viability, 1 nM T3 present, 24 h): > 90 µM |
| CCC(C)Cl (stereo not drawn) [2-Chlorobutane] | – | CC50 at 24 h (AC50 (uM) modified / 1000, Tox21_110001=Tox21_200404, viability, 1 nM T3 present, 24 h): > 90 µM |
| O=C1CCCCC1Cl (stereo not drawn) [2-Chlorocyclohexanone] | – | CC50 at 24 h (AC50 (uM) modified / 1000, Tox21_110001=Tox21_200522, viability, 1 nM T3 present, 24 h): > 90 µM |
| OCCCl [2-Chloroethanol] | – | CC50 at 24 h (AC50 (uM) modified / 1000, Tox21_110001=Tox21_300043, viability, 1 nM T3 present, 24 h): > 90 µM |
| C=CC(=O)OCCCl [2-Chloroethyl acrylate] | > 90 | – |
| Clc1ccc2ccccc2c1 [2-Chloronaphthalene] | – | CC50 at 24 h (AC50 (uM) modified / 1000, Tox21_110001=Tox21_200981, viability, 1 nM T3 present, 24 h): > 90 µM |
| Oc1ccccc1Cl [2-Chlorophenol] | > 90 | – |
| CC(Cl)C(=O)O (stereo not drawn) [2-Chloropropanoic acid] | > 100 | – |
| Clc1ccccn1 [2-Chloropyridine] | > 90 | – |
| Cc1ccccc1Cl [2-Chlorotoluene] | > 90 | – |
| C=CC(=O)OCCC#N [2-Cyanoethyl prop-2-enoate] | > 90 | – |
| O=C1C=CCCC1 [2-Cyclohexen-1-one] | > 90 | – |
| CC(=O)OCCC1CCCCC1 [2-Cyclohexylethyl acetate] | > 90 | – |
